Laboratory results reported in ChEMBL document CHEMBL1139227, “Discovery of a series of 6,7-dimethoxy-4-pyrrolidylquinazoline PDE10A inhibitors” (J Med Chem, 2007).
Activity calls are given as the source filed them. The calls are words filed in the database; no cut-off is given here.

Tests used:
[1] = Inhibition of rat recombinant PDE10A transfected in Sf9 cells by SPA
[2] = biological target: cGMP-inhibited 3',5'-cyclic phosphodiesterase 3A (Homo sapiens, UniProt Q14432); assay: Inhibition of human recombinant PDE3A transfected in Sf9 cells by SPA
[3] = biological target: cGMP-inhibited 3',5'-cyclic phosphodiesterase 3B (Homo sapiens, UniProt Q13370); assay: Inhibition of human recombinant PDE3B transfected in Sf9 cells by SPA
Mus musculus [4] = assay: Increase of phosphorylated CREB level in CD1 mice striatal tissue at 32 mg/kg, sc after 30 mins; assay type: functional, organism-based; parameters: dose 32 mg/kg; settings: Striatum
Mus musculus [5] = assay: Increase of cGMP level in CD1 mouse striatal tissue at 32 mg/kg, sc; assay type: functional, organism-based; parameters: dose 32 mg/kg; settings: Striatum
Mus musculus [6] = assay: Increase of phosphorylated CREB level in CD1 mice striatal tissue at 32 mg/kg, sc after 90 mins; assay type: functional, organism-based; parameters: dose 32 mg/kg; settings: Striatum
Mus musculus [7] = assay: Increase of cGMP level in CD1 mouse striatal tissue at 10 mg/kg, sc; assay type: functional, organism-based; parameters: dose 10 mg/kg; settings: Striatum

cGMP-inhibited 3',5'-cyclic phosphodiesterase 3A, sequence (Q14432 whole entry): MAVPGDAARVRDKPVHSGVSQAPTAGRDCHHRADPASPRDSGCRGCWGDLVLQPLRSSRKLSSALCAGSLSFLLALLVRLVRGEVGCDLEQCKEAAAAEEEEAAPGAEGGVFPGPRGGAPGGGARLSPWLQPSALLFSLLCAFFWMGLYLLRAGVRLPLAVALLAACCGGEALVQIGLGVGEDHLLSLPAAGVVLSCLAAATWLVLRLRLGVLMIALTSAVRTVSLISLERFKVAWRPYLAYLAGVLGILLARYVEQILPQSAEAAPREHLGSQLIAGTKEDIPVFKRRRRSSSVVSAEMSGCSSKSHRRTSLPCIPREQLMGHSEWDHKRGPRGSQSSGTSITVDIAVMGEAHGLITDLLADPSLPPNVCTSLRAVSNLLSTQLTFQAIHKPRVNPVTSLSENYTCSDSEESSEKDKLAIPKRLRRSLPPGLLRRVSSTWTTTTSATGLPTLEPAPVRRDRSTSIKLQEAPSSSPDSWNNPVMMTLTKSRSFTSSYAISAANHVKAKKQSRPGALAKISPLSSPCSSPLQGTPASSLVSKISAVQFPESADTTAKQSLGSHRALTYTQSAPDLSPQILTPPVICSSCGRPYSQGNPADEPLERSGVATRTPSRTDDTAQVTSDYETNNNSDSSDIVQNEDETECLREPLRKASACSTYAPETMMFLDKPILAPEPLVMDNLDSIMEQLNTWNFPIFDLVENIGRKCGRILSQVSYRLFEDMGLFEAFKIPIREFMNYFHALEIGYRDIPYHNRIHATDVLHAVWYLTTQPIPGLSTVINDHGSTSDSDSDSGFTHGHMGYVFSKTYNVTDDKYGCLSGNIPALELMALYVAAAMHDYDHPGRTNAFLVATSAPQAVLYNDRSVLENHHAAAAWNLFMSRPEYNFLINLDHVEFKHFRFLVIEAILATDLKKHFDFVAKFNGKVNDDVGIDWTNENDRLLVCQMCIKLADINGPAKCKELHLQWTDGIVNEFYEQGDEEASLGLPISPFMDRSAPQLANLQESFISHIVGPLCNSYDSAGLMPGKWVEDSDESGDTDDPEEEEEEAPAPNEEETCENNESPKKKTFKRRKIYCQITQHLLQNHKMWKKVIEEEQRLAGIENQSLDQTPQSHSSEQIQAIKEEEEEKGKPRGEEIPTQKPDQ
cGMP-inhibited 3',5'-cyclic phosphodiesterase 3B, sequence (Q13370 whole entry): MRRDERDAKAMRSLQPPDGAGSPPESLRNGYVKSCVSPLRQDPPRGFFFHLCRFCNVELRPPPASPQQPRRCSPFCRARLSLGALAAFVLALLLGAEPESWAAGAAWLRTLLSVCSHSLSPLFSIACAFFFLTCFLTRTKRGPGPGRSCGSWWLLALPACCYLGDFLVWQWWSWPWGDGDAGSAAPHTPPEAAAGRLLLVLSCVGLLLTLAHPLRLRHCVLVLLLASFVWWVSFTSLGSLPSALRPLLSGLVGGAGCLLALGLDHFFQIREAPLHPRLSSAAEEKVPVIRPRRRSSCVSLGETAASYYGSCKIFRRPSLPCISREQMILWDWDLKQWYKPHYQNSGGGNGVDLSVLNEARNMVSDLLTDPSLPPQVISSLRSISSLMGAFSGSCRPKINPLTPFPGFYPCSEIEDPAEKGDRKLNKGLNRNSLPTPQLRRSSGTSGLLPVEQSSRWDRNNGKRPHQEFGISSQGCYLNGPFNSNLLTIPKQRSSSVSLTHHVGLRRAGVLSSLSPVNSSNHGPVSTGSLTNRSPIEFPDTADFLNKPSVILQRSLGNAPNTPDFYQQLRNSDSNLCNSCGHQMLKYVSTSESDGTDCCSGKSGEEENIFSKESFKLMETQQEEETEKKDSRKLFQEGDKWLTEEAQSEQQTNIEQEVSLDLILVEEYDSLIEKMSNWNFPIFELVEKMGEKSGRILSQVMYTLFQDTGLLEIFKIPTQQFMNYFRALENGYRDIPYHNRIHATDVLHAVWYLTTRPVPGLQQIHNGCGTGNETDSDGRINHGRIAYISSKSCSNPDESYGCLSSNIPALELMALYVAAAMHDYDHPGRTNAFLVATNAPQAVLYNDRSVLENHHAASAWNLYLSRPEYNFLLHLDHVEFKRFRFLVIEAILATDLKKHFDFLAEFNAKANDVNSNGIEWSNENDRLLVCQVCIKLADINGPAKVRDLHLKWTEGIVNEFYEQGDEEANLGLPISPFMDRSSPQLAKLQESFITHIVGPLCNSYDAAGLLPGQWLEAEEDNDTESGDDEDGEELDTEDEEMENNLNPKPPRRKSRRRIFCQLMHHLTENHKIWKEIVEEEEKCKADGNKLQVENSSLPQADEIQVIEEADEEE

Compound	Ki [1]	Ki [2]	Ki [3]	IC50 [1]	Activity (Mus musculus [4])	Activity (Mus musculus [5])	Activity (Mus musculus [6])	Activity (Mus musculus [7])
COc1cc2ncnc(N3CC[C@@H](Oc4ccc5ncccc5c4)C3)c2cc1OC	0.012 µM	0.104 µM	0.201 µM					
COc1cc2ncnc(N3CC[C@@H](Oc4ccccc4OC)C3)c2cc1OC	0.24 µM	< 0.1 µM	> 0.1 µM					
COc1cc2ncnc(N3CCc4ccc(S(=O)(=O)N5CCN(C)CC5)cc4C3)c2cc1OC	0.025 µM							
COc1ccc(O[C@@H]2CCN(c3ncnc4cc(OC)c(OC)cc34)C2)cc1OC	0.067 µM	0.121 µM	0.26 µM					
COc1cc2ncnc(N3CC[C@@H](Oc4ccccc4C#N)C3)c2cc1OC	0.13 µM	< 0.1 µM	< 0.1 µM					
COc1cc2ncnc(N3CC[C@@H](Oc4ccc(C#N)cc4)C3)c2cc1OC		0.214 µM	0.471 µM					
CCOc1ccc(O[C@@H]2CCN(c3ncnc4cc(OC)c(OC)cc34)C2)cc1	0.054 µM	0.161 µM	0.328 µM					
COc1cc2ncnc(N3CC[C@@H](Oc4ccc5ccccc5c4)C3)c2cc1OC		0.283 µM	0.463 µM	0.014 µM				
COc1cc2ncnc(N3CC[C@@H](Oc4ccccc4C)C3)c2cc1OC	0.326 µM	< 0.1 µM	< 0.1 µM					
COc1cc2ncnc(N3CC[C@@H](Oc4cccnc4)C3)c2cc1OC	0.128 µM	0.302 µM	0.748 µM					
COc1cc2ncnc(N3CC[C@@H](Oc4cccc(C(C)C)c4)C3)c2cc1OC	0.171 µM	0.37 µM	0.474 µM					
COc1cc2ncnc(N3CC[C@@H](Oc4cccc(-c5ccccc5)c4)C3)c2cc1OC	0.136 µM	0.271 µM	0.28 µM					
CCOc1cccc(O[C@@H]2CCN(c3ncnc4cc(OC)c(OC)cc34)C2)c1	0.094 µM	0.061 µM	0.088 µM					
COc1cc2ncnc(N3CC[C@H](Oc4ccccc4OC)C3)c2cc1OC	0.641 µM	> 0.1 µM	> 0.1 µM					
COc1cc2ncnc(N3CC[C@@H](Oc4ccc5cccnc5c4)C3)c2cc1OC	0.012 µM	0.209 µM	0.24 µM					
COc1cc2ncnc(N3CC[C@@H](Oc4cnc5ccccc5n4)C3)c2cc1OC		0.211 µM	0.273 µM	0.006 µM	Active	Active	Active	Active
COc1cc2ncnc(N3CC[C@@H](Oc4ccc5c(c4)CCC5)C3)c2cc1OC	0.068 µM	0.141 µM	0.237 µM					
COc1cc2ncnc(N3CC[C@@H](Oc4ccc(OC(F)(F)F)cc4)C3)c2cc1OC	0.185 µM	0.739 µM	1.82 µM					
COc1cc2ncnc(N3CC[C@@H](Oc4ccccc4Cl)C3)c2cc1OC	0.198 µM	< 0.1 µM	< 0.1 µM					
COc1ccc(Cc2nccc3cc(OC)c(OC)cc23)cc1OC [PAPAVERINE]	0.017 µM							
COc1ccc2cc(O[C@@H]3CCN(c4ncnc5cc(OC)c(OC)cc45)C3)ccc2c1	0.018 µM	0.199 µM	0.28 µM					
COc1cc2ncnc(N3CC[C@@H](Oc4ccc(C(C)(C)C)cc4)C3)c2cc1OC	0.1 µM	0.72 µM	1.89 µM					
COc1cc2ncnc(N3CC[C@@H](Oc4ccncc4)C3)c2cc1OC	0.112 µM	0.226 µM	0.685 µM					
COc1cc2ncnc(N3CC[C@@H](Oc4cc5ccccc5cn4)C3)c2cc1OC	0.019 µM	0.151 µM	0.196 µM					
COc1cc2ncnc(N3CC[C@@H](Oc4ccccc4C(F)(F)F)C3)c2cc1OC	0.811 µM	< 0.1 µM	> 0.1 µM					
COc1ccc2ccc(O[C@@H]3CCN(c4ncnc5cc(OC)c(OC)cc45)C3)cc2c1	0.017 µM	0.273 µM	0.305 µM					
COc1cc2ncnc(N3CC[C@@H](Oc4ccccn4)C3)c2cc1OC	0.123 µM	0.077 µM	0.207 µM					
COc1cc2ncnc(N3CC[C@@H](Oc4ccc5nc(C)ccc5c4)C3)c2cc1OC	0.018 µM	0.152 µM	0.223 µM					
COc1cc2ncnc(N3CC[C@@H](Oc4ncc(Cl)cn4)C3)c2cc1OC	0.044 µM	0.162 µM	0.332 µM					
COc1cc2ncnc(N3CC[C@@H](Oc4cccc5ccccc45)C3)c2cc1OC	0.21 µM	0.048 µM	0.056 µM					
